How the values were obtained:
[1] = target: JAK2 (Homo sapiens (Human), UniProt O60674); assay: Jak Biochemical HTRF Assay, JAK2; conditions: HTRF biochemical assay, GST-tagged catalytic domain; top concentration tested […]
Description: (§1) Jak Biochemical HTRF Assay Protocol
(§2) Subsequent reagent additions employed an Agilent Bravo.

[2] = target: JAK1 (Homo sapiens (Human), UniProt P23458); assay: Jak Biochemical HTRF Assay, JAK1; conditions: HTRF biochemical assay, GST-tagged catalytic domain; top concentration tested […]; read-out: JAK1 IC50
Description: as §1, §2

Sequence of JAK1 (P23458 875-1153): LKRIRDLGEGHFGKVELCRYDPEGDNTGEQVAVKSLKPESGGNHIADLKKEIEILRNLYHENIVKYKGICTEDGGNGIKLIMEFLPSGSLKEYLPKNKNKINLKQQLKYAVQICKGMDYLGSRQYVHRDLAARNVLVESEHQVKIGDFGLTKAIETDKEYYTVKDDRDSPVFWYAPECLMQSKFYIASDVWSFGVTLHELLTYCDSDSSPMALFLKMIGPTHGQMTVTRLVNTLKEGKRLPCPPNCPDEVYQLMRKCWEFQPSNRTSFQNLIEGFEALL
Sequence of JAK2 (O60674 849-1124): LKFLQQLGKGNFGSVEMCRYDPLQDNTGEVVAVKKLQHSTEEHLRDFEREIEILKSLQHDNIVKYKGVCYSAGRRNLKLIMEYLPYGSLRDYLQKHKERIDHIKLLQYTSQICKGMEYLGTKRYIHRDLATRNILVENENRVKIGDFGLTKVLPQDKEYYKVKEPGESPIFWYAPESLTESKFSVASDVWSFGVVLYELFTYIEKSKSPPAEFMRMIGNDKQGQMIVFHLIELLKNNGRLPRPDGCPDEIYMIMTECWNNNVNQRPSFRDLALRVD

SMILES	IC50 [1] [µM]	IC50 [2] [µM]
CC(C)(C)OC(=O)N1CCC(CC#N)(n2cc(C(N)=O)c(Nc3ccc(F)nc3)n2)CC1 [Example 12-5, tert-butyl 4-{4-carbamoyl-3-[(6-fluoropyridin-3-yl)amino]-1H-pyrazol-1-yl}-4-(cyanomethyl)piperidine-1-carboxylate]	0.007	0.0008
CC(C)(C)OC(=O)N1CCC(CC#N)(n2cc(C(N)=O)c(Nc3ccnnc3)n2)CC1 [Example 12-6, tert-butyl 4-[4-carbamoyl-3-(pyridazin-4-ylamino)-1H-pyrazol-1-yl]-4-(cyanomethyl)piperidine-1-carboxylate]	0.015	0.0004
CC(C)(C)OC(=O)N1CCC(CC#N)(n2cc(C(N)=O)c(Nc3ccc4c(c3)CNC4=O)n2)CC1 [Example 12-7, tert-butyl 4-{4-carbamoyl-3-[(1-oxo-2,3-dihydro-1H-isoindol-5-yl)amino]-1H-pyrazol-1-yl}-4-(cyanomethyl)piperidine-1-carboxylate]	0.002	0.0001
CC(C)(C)OC(=O)N1CCC(CC#N)(n2cc(C(N)=O)c(Nc3ccc(F)cn3)n2)CC1 [Example 13-4, tert-butyl 4-(4-carbamoyl-3-(5-fluoropyridin-2-ylamino)-1H-pyrazol-1-yl)-4-(cyanomethyl)piperidine-1-carboxylate]	0.183	0.004
CC(C)(C)OC(=O)N1CCC(CC#N)(n2cc(C(N)=O)c(Nc3cnccn3)n2)CC1 [Example 13-7, tert-butyl 4-(4-carbamoyl-3-(pyrazine-2-ylamino)-1H-pyrazol-1-yl)-4-(cyanomethyl)piperidine-1-carboxylate]	0.21	0.008
Cc1cc(Nc2nn(C3(CC#N)CCN(C(=O)OC(C)(C)C)CC3)cc2C(N)=O)nc(C)n1 [Example 13-10, tert-butyl 4-(4-carbamoyl-3-(2,6-dimethylpyrimidin-4-ylamino)-1H-pyrazol-1-yl)-4-(cyanomethyl)piperidine-1-carboxylate]	0.178	0.006
Cc1noc(C)c1-c1ccc(Nc2nn(C3(CC#N)CCN(C(=O)OC(C)(C)C)CC3)cc2C(N)=O)cc1 [Example 14, tert-Butyl 4-(4-carbamoyl-3-{[4-(3,5-dimethylisoxazol-4-yl)phenyl]amino}-1H-pyrazol-1-yl)-4-(cyanomethyl)piperidine-1-carboxylate]	0.038	0.01
Cc1ccc(-c2cccc(Nc3nn(C4(CC#N)CCN(C(=O)OC(C)(C)C)CC4)cc3C(N)=O)c2)cc1 [Example 15-6, tert-butyl 4-{4-carbamoyl-3-[(4′-methylbiphenyl-3-yl)amino]-1H-pyrazol-1-yl}-4-(cyanomethyl)piperidine-1-carboxylate]	1.48	0.085
Cc1ccccc1-c1cccc(Nc2nn(C3(CC#N)CCN(C(=O)OC(C)(C)C)CC3)cc2C(N)=O)c1 [Example 15-7, tert-butyl 4-{4-carbamoyl-3-[(2′-methylbiphenyl-3-yl)amino]-1H-pyrazol-1-yl}-4-(cyanomethyl)piperidine-1-carboxylate]	1.48	0.127

Second part, the compound after the results:

IC50 [1] [µM]	IC50 [2] [µM]	SMILES
0.139	0.003	CC(C)(C)OC(=O)N1CCC(CC#N)(n2cc(C(N)=O)c(Nc3ccncn3)n2)CC1 [Example 13-1, tert-Butyl 4-(4-carbamoyl-3-(pyrimidin-4-ylamino)-1H-pyrazol-1-yl)-4-(cyanomethyl)piperidine-1-carboxylate]
1.01	0.013	Cc1cccc(Nc2nn(C3(CC#N)CCN(C(=O)OC(C)(C)C)CC3)cc2C(N)=O)n1 [Example 13-2, tert-butyl 4-(4-carbamoyl-3-(6-methylpyridin-2-ylamino)-1H-pyrazol-1-yl)-4-(cyanomethyl)piperidine-1-carboxylate]
0.466	0.008	CC(C)(C)OC(=O)N1CCC(CC#N)(n2cc(C(N)=O)c(Nc3ccccn3)n2)CC1 [Example 13-3, tert-butyl 4-(4-carbamoyl-3-(pyridin-2-ylamino)-1H-pyrazol-1-yl)-4-(cyanomethyl)piperidine-1-carboxylate]
0.903	0.015	CC(C)(C)OC(=O)N1CCC(CC#N)(n2cc(C(N)=O)c(Nc3cc(F)ccn3)n2)CC1 [Example 13-5, tert-butyl 4-(4-carbamoyl-3-(4-fluoropyridin-2-ylamino)-1H-pyrazol-1-yl)-4-(cyanomethyl)piperidine-1-carboxylate]
0.179	0.026	CC(C)(C)OC(=O)N1CCC(CC#N)(n2cc(C(N)=O)c(Nc3cccnn3)n2)CC1 [Example 13-6, tert-butyl 4-(4-carbamoyl-3-(pyridazin-3-ylamino)-1H-pyrazol-1-yl)-4-(cyanomethyl)piperidine-1-carboxylate]
0.176	0.009	Cc1cncc(Nc2nn(C3(CC#N)CCN(C(=O)OC(C)(C)C)CC3)cc2C(N)=O)n1 [Example 13-8, tert-butyl 4-(4-carbamoyl-3-(6-methylpyrazine-2-ylamino)-1H-pyrazol-1-yl)-4-(cyanomethyl)piperidine-1-carboxylate]
0.126	0.005	Cc1cc(Nc2nn(C3(CC#N)CCN(C(=O)OC(C)(C)C)CC3)cc2C(N)=O)ncn1 [Example 13-11, tert-butyl 4-(4-carbamoyl-3-(6-methylpyrimidin-4-ylamino)-1H-pyrazol-1-yl)-4-(cyanomethyl)piperidine-1-carboxylate]
1.48	0.148	CC(C)(C)OC(=O)N1CCC(CC#N)(n2cc(C(N)=O)c(Nc3cccc(-c4ccc(Cl)cc4)c3)n2)CC1 [Example 15-1, tert-Butyl 4-{4-carbamoyl-3-[(4′-chlorobiphenyl-3-yl)amino]-1H-pyrazol-1-yl}-4-(cyanomethyl)piperidine-1-carboxylate]
1.1	0.051	CC(C)(C)OC(=O)N1CCC(CC#N)(n2cc(C(N)=O)c(Nc3cccc(-c4ccc(F)cc4)c3)n2)CC1 [Example 15-2, tert-butyl 4-{4-carbamoyl-3-[(4′-fluorobiphenyl-3-yl)amino]-1H-pyrazol-1-yl}-4-(cyanomethyl)piperidine-1-carboxylate]
1.05	0.341	CC(C)(C)OC(=O)N1CCC(CC#N)(n2cc(C(N)=O)c(Nc3cccc(-c4ccccc4)c3)n2)CC1 [Example 15-3, tert-butyl 4-[3-(biphenyl-3-ylamino)-4-carbamoyl-1H-pyrazol-1-yl]-4-(cyanomethyl)piperidine-1-carboxylate]
0.958	0.041	COc1ccc(-c2cccc(Nc3nn(C4(CC#N)CCN(C(=O)OC(C)(C)C)CC4)cc3C(N)=O)c2)cc1 [Example 15-4, tert-butyl 4-{4-carbamoyl-3-[(4′-methoxybiphenyl-3-yl)amino]-1H-pyrazol-1-yl}-4-(cyanomethyl)piperidine-1-carboxylate]
0.293	0.014	CC(C)(C)OC(=O)N1CCC(CC#N)(n2cc(C(N)=O)c(Nc3cccc(-c4ccc(O)cc4)c3)n2)CC1 [Example 15-5, tert-butyl 4-{4-carbamoyl-3-[(4′-hydroxybiphenyl-3-yl)amino]-1H-pyrazol-1-yl}-4-(cyanomethyl)piperidine-1-carboxylate]

— patent US9328099B2, “Cyanomethylpyrazole carboxamides as janus kinase inhibitors” (Merck Sharp & Dohme Corp., priority 2011, dated 2016)
